Measured values: patent US20260092071A1, “COMPOUNDS AND COMPOSITIONS AS SMARCA2/4 DEGRADERS AND USES THEREOF” (REGENTS OF THE UNIVERSITY OF MICHIGAN, priority 2022, published 2026)
Like-named read-outs stand apart in the source and are kept apart here.

What was measured:
[1] = molecular target: SMARCA2 (Homo sapiens, UniProt P51531); experiment: HiBiT assay for protein degradation, Hela SMARCA2-HiBiT cells (A series); format: cell-based; set-up: Hela cells were genetically modified via CRISPR/Cas9 to fuse HiBiT to the carboxy terminus of SMARCA2; host or cells: HeLa (CRISPR/Cas9 HiBiT knock-in); conditions: for DC50: read-out: SMARC A2 Hela HiBit DC50; for Dmax: read-out: SMARC A2 Hela HiBit Dmax (%);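 for SMARC A2 Hela HiBit Dmax (%): 24 h compound treatment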
Chain of SMARCA2 (P51531 whole entry, the tested form may be a part): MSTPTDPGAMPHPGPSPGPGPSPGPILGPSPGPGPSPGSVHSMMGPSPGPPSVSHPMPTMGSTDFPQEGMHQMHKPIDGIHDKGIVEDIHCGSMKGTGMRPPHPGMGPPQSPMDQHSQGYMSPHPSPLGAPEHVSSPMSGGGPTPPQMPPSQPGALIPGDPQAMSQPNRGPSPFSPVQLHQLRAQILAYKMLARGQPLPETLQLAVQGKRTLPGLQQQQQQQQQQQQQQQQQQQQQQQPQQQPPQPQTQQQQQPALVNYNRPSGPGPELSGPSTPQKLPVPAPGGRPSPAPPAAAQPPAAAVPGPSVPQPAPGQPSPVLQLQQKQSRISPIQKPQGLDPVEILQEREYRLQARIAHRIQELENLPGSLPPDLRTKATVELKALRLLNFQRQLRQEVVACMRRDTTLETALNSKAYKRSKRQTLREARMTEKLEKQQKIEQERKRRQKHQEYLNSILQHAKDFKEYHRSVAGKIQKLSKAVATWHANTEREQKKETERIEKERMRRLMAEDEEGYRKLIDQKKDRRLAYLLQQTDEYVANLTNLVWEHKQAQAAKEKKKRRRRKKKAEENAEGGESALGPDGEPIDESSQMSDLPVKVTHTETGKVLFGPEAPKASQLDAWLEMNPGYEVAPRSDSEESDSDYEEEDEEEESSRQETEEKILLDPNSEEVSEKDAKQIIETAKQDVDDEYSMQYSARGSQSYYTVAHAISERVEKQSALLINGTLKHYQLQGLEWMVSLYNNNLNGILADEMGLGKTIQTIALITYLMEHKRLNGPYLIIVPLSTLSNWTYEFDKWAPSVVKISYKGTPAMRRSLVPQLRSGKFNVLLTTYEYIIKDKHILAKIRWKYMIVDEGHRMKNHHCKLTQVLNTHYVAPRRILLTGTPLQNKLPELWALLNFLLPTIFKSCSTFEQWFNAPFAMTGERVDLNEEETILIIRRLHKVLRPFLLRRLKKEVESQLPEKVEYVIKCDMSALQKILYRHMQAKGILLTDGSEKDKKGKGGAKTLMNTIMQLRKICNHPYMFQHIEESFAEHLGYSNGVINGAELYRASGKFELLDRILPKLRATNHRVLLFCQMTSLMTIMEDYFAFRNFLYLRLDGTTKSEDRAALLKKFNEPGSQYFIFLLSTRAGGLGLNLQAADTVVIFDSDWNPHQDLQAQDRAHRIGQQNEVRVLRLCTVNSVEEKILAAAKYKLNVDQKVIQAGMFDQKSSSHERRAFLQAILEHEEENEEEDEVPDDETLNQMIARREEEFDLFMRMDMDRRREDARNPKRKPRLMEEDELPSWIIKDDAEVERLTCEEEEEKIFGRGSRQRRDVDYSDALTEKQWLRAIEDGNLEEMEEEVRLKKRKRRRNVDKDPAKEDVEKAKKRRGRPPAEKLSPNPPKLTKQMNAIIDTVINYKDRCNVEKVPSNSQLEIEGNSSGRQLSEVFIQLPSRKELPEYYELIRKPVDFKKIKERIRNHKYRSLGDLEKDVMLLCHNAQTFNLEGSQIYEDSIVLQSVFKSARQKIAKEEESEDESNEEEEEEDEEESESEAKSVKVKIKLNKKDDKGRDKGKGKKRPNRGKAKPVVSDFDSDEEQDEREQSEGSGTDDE
In short: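 HeLa cells engineered by CRISPR/Cas9 to carry a HiBiT tag fused to the C-terminus of SMARCA2 (Promega CS302365) were grown in DMEM supplemented with FBS and penicillin-streptomycin. After treatment, remaining SMARCA2 protein was quantified with the Nano-Glo® HiBiT Lytic Detection Assay (Promega N3050), and curves were fitted in GraphPad Prism.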

[2] = molecular target: SMARCA4 (Homo sapiens, UniProt P51532); experiment: HiBiT assay for protein degradation, Hela SMARCA4-HiBiT cells (A series); format: cell-based; set-up: fuse HiBiT to the carboxy terminus of SMARCA2 (Promega CS302365) or SMARCA4 (Promega CS3023225); host or cells: HeLa (CRISPR/Cas9 HiBiT knock-in); conditions: for DC50: read-out: SMARC A4 Hela HiBit DC50; for Dmax: read-out: SMARC A4 Hela HiBit Dmax
Chain of SMARCA4 (P51532 whole entry, the tested form may be a part): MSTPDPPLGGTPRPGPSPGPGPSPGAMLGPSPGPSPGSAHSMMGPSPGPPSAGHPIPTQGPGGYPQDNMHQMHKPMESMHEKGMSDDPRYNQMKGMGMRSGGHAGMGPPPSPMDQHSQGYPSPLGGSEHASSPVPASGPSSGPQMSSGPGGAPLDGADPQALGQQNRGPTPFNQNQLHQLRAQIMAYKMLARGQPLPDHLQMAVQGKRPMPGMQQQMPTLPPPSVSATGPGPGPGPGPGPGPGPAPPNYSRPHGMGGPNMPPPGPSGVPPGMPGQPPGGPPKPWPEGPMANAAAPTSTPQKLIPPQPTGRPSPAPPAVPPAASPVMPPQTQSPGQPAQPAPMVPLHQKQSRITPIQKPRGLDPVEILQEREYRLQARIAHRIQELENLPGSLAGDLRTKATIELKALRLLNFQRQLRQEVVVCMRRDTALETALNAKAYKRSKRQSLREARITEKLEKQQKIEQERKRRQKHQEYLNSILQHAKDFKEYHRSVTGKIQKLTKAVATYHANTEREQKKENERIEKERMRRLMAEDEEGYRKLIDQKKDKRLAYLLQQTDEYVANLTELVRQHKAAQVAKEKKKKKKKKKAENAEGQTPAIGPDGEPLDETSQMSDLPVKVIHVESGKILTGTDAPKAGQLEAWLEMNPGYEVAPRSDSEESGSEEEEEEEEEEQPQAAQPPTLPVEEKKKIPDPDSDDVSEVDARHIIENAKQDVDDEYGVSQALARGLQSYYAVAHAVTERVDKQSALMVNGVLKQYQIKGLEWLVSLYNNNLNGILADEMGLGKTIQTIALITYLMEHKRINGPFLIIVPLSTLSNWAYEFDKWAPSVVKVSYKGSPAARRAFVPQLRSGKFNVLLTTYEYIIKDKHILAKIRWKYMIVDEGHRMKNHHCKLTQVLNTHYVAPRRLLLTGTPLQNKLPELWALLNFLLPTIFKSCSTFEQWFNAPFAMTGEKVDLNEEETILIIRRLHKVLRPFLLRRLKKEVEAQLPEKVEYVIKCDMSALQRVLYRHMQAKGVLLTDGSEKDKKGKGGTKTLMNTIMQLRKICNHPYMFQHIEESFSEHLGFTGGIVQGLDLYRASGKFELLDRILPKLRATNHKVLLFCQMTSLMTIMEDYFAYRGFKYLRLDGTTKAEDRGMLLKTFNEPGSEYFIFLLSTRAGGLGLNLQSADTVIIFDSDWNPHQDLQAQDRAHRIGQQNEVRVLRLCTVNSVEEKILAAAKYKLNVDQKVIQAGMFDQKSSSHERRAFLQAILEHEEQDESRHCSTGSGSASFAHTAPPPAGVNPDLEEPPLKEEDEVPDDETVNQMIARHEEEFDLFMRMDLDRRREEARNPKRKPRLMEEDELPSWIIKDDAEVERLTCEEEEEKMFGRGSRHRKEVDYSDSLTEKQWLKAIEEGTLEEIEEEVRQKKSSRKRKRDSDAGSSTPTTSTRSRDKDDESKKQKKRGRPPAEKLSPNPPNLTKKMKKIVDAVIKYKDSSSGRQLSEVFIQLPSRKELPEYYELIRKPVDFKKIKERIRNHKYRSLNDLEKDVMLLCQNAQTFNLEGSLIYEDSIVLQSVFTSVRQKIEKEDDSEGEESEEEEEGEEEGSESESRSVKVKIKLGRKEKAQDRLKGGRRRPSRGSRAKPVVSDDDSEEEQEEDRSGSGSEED
In short: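 HeLa cells engineered by CRISPR/Cas9 to carry a HiBiT tag fused to the C-terminus of SMARCA4 (Promega CS3023225) were grown in DMEM supplemented with FBS and penicillin-streptomycin. After compound exposure, remaining SMARCA4 protein was quantified using the Nano-Glo® HiBiT Lytic Detection Assay (Promega N3050), and curves were fitted in GraphPad Prism.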

[3] = test system: SMARCA4-deficient cancer cell lines; conditions: pharmacological studies; cited from earlier work
[4] = Hela SMARCA2-HiBiT cells, 24 hours treatment
[5] = Hela SMARCA4-HiBiT cells, 24 hours treatment

Row | Structure (SMILES) | DC50 [1, 4] | Dmax [1, 4] | DC50 [2, 5] | Dmax [2, 5] | SMARC A2 Hela HiBit Dmax (%) [1, 4] | DC50 [1] | SMARC A4 Hela HiBit Dmax(%) [2, 5] | DC50 [2] | antiproliferative phenotype [3] | SMARC A4 Hela HiBit DC50(nM) [2, 5]
1 | Cc1ncsc1-c1ccc([C@H](CO)NC(=O)[C@@H]2C[C@@H](O)CN2C(=O)[C@H](C2CCCCC2)n2cc([C@H]3CC[C@H](CN4CCC(c5ccc6c(c5)-n5c(nc(=O)c7c(Br)cccc75)C65CCCCC5)CC4)CC3)nn2)cc1 [Compound A127] | < 10 nM | > 90% | < 10 nM | 70 to 90% |  |  |  |  |  | 
2 | Cc1ncsc1-c1ccc([C@H](C)NC(=O)[C@@H]2C[C@@H](O)CN2C(=O)[C@@H](n2cc(-c3ccc(CN4CCC(c5ccc6c(c5)-n5c(nc(=O)c7c(Br)cccc75)C65CCCCC5)CC4)nc3)nn2)C(C)(C)C)cc1 [Compound A66] |  |  |  |  | C (C (50-69% degradation)) | > 1000 nM | D (D (<50% degradation)) | > 1000 nM |  | 
3 | Cc1ncsc1-c1ccc([C@H](C)NC(=O)[C@@H]2C[C@@H](O)CN2C(=O)[C@H](C2CCNCC2)n2cc([C@H]3CC[C@H](CN4CCC(c5ccc6c(c5)-n5c(nc(=O)c7c(Cl)cccc75)C65CCCCC5)CC4)CC3)nn2)cc1 [Compound A109, (2S,4R)-1-((S)-2-(4-((1r,4S)-4-((4-(4′-chloro-5′-oxo-5′H-spiro[cyclohexane-1,7′-indolo[1,2-a]quinazolin]-10′-yl)piperidin-1-yl)methyl)cyclohexyl)-1H-1,2,3-triazol-1-yl)-2-(piperidin-4-yl)acetyl)-4-hydroxy-N—((S)-1-(4-(4-methylthiazol-5-yl)phenyl)ethyl)pyrrolidine-2-carboxamide] | 100 to 1000 nM | 70 to 90% | > 1000 nM | 50 to 69% |  |  |  |  |  | 
4 | Cc1ncsc1-c1ccc([C@H](C)NC(=O)[C@@H]2C[C@@H](O)CN2C(=O)[C@H](C2CCCCC2)n2cc([C@H]3CC[C@H](CN4CCC(c5ccc6c(c5)-n5c(nc(=O)c7c(Cl)cccc75)C65CCCCC5)CC4)CC3)nn2)cc1 [Compound A118, (2S,4R)-1-((S)-2-(4-((1r,4S)-4-((4-(4′-chloro-5′-oxo-5′H-spiro[cyclohexane-1,7′-indolo[1,2-a]quinazolin]-10′-yl)piperidin-1-yl)methyl)cyclohexyl)-1H-1,2,3-triazol-1-yl)-2-cyclohexylacetyl)-4-hydroxy-N—((S)-1-(4-(4-methylthiazol-5-yl)phenyl)ethyl)pyrrolidine-2-carboxamide] | < 10 nM | > 90% | 100 to 1000 nM | 50 to 69% |  |  |  |  |  | 
5 | O=C(/C=C/N1C[C@H]2C[C@@H]1CN2c1ccccn1)c1ccccc1O [PFI-3] |  |  |  |  |  |  |  |  | fail to display an antiproliferative phenotype | 
6 | Cc1ncsc1-c1ccc([C@H](C)NC(=O)[C@@H]2C[C@@H](O)CN2C(=O)[C@H](C2CCOCC2)n2cc([C@H]3CC[C@H](CN4CCC(c5ccc6c(c5)-n5c(nc(=O)c7c(Cl)cccc75)C65CCCCC5)CC4)CC3)nn2)cc1 [Compound A120, (2S,4R)-1-((S)-2-(4-((1r,4S)-4-((4-(4′-chloro-5′-oxo-5′H-spiro[cyclohexane-1,7′-indolo[1,2-a]quinazolin]-10′-yl)piperidin-1-yl)methyl)cyclohexyl)-1H-1,2,3-triazol-1-yl)-2-(tetrahydro-2H-pyran-4-yl)acetyl)-4-hydroxy-N—((S)-1-(4-(4-methylthiazol-5-yl)phenyl)ethyl)pyrrolidine-2-carboxamide] | < 10 nM | > 90% |  | 50 to 69% |  |  |  |  |  | No fit
7 | Cc1ncsc1-c1ccc([C@H](CN2CCC(C(F)(F)F)CC2)NC(=O)[C@@H]2C[C@@H](O)CN2C(=O)[C@@H](n2cc([C@H]3CC[C@H](CN4CCC(c5ccc6c(c5)-n5c(nc(=O)c7c(Cl)cccc75)C65CCCCC5)CC4)CC3)nn2)C(C)(C)C)cc1 [Compound A83, (2S,4R)-1-((S)-2-(4-((1r,4S)-4-((4-(4′-chloro-5′-oxo-5′H-spiro[cyclohexane-1,7′-indolo[1,2-a]quinazolin]-10′-yl)piperidin-1-yl)methyl)cyclohexyl)-1H-1,2,3-triazol-1-yl)-3,3-dimethylbutanoyl)-4-hydroxy-N-(®-1-(4-(4-methylthiazol-5-yl)phenyl)-2-(4-(trifluoromethyl)piperidin-1-yl)ethyl)pyrrolidine-2-carboxamide] | < 10 nM | > 90% | > 1000 nM | 50 to 69% |  |  |  |  |  | 
8 | O=C(O)c1ncsc1-c1ccc([C@H](CN2CCOCC2)NC(=O)[C@@H]2C[C@@H](O)CN2C(=O)[C@H](C2CCOCC2)n2cc([C@H]3CC[C@H](CN4CCC(c5ccc6c(c5)-n5c(nc(=O)c7c(Cl)cccc75)C65CCCCC5)CC4)CC3)nn2)cc1 [Compound A134, 5-(4-((R)-1-((2S,4R)-1-((S)-2-(4-((1r,4S)-4-((4-(4′-chloro-5′-oxo-5′H-spiro[cyclohexane-1,7′-indolo[1,2-a]quinazolin]-10′-yl)piperidin-1-yl)methyl)cyclohexyl)-1H-1,2,3-triazol-1-yl)-2-(tetrahydro-2H-pyran-4-yl)acetyl)-4-hydroxypyrrolidine-2-carboxamido)-2-morpholinoethyl)phenyl)thiazole-4-carboxylic acid] | 100 to 1000 nM | 70 to 90% | > 1000 nM | < 50% |  |  |  |  |  | 
9 | Cc1ncsc1-c1ccc([C@H](CC(=O)N2CCC3(CCC(CN4CCC(c5ccc6c(c5)-n5c(nc(=O)c7c(Br)cccc75)C65CCCCC5)CC4)CC3)CC2)NC(=O)[C@@H]2C[C@@H](O)CN2C(=O)[C@@H](n2cc(C3CC3)nn2)C(C)(C)C)cc1 [Compound A142, (2S,4R)—N—((S)-3-(9-((4-(4′-bromo-5′-oxo-5′H-spiro[cyclohexane-1,7′-indolo[1,2-a]quinazolin]-10′-yl)piperidin-1-yl)methyl)-3-azaspiro[5.5]undecan-3-yl)-1-(4-(4-methylthiazol-5-yl)phenyl)-3-oxopropyl)-1-((S)-2-(4-cyclopropyl-1H-1,2,3-triazol-1-yl)-3,3-dimethylbutanoyl)-4-hydroxypyrrolidine-2-carboxamide] | < 10 nM | > 90% | < 10 nM | 70 to 90% |  |  |  |  |  | 
